10 molecules from PubChem BioAssay (NCI) can be followed below.

Test systems include CCRF-CEM leukemia; COLO 205 colon; EKVX NSCLC; HOP-62 NSCLC; M14 melanoma; NCI-H23 lung; OVCAR-4 ovarian; RPMI-8226 leukemia; SF-268 CNS; SK-MEL-5 melanoma; SNB-19 CNS; SNB-75 CNS; UO-31 renal.
Holding throughout (test): DTP human tumour cell line panel, 48 h

Each structure is given as a SMILES string.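 All cell lines were grown in 96-well plates and treated with compound for 48 hours. GI50 is the concentration that inhibits growth by half. The concentration for full growth arrest is given as TGI.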

For `Cc1ccc(/C=C/C(=N/NC(=O)N/N=C(/C=C/c2ccc(C)cc2)C(C)(C)CN2CCCCC2)C(C)(C)CN2CCCCC2)cc1`, the total growth inhibition concentration (TGI) (as a rule, the concentration giving total growth inhibition) was 3.08 µM in the assay on CCRF-CEM leukemia; 3.07 µM in the assay with COLO 205 colon; 6.69 µM with EKVX NSCLC; 3.08 µM in the assay on HOP-62 NSCLC; 1.8 µM in the assay on M14 melanoma; 4.82 µM with NCI-H23 lung. In addition, the TGI in the assay with OVCAR-4 ovarian amounted to 4.26 µM; in the assay with RPMI-8226 leukemia, 0.897 µM; in the assay on SF-268 CNS it was 4.64 µM; with SK-MEL-5 melanoma it was 3.08 µM; in the assay on SNB-19 CNS it was 4.4 µM; in the assay on SNB-75 CNS, 3.08 µM. The total growth inhibition concentration (TGI) in the assay on UO-31 renal came to 2.28 µM.

As to `Cc1ccsc1/C=N/Nc1nncc2ccccc12`, the TGI with CCRF-CEM leukemia, in the assay on COLO 205 colon, in the assay with EKVX NSCLC, with HOP-62 NSCLC, in the assay with M14 melanoma and with NCI-H23 lung was above 100 µM each time. For the same molecule, the total growth inhibition concentration (TGI) in the assay on OVCAR-4 ovarian, in the assay on RPMI-8226 leukemia, in the assay with SF-268 CNS, in the assay on SK-MEL-5 melanoma, in the assay on SNB-19 CNS and with SNB-75 CNS was above 100 µM in each case. In addition, the TGI with UO-31 renal is above 100 µM.

Turning to `C[C@]12[C@@H]3CC[C@H]1[C@@H](OC(=O)Nc1cc([N+](=O)[O-])cc([N+](=O)[O-])c1)C(=O)N2CC3`, the TGI in the assay with CCRF-CEM leukemia, in the assay with COLO 205 colon, in the assay on EKVX NSCLC, in the assay on HOP-62 NSCLC, in the assay with M14 melanoma and in the assay on NCI-H23 lung was above 100 µM in each case. Moreover, the total growth inhibition concentration (TGI) with OVCAR-4 ovarian, in the assay on RPMI-8226 leukemia, in the assay on SF-268 CNS, in the assay with SK-MEL-5 melanoma, in the assay with SNB-19 CNS and with SNB-75 CNS was above 100 µM each time. Besides, the total growth inhibition concentration (TGI) in the assay on UO-31 renal was above 100 µM.

Consider `O=C1/C(=C/c2ccc(Cl)cc2)N=C(c2ccccc2)N1c1ccc(S(=O)(=O)Nc2nccs2)cc1`, for which the concentration for total growth inhibition (TGI) in the assay with CCRF-CEM leukemia is 87 µM; in the assay with COLO 205 colon it was 40.7 µM; with EKVX NSCLC, above 100 µM; in the assay with HOP-62 NSCLC, above 100 µM; with M14 melanoma, above 100 µM; in the assay on NCI-H23 lung, above 100 µM. For the same molecule, the TGI in the assay with OVCAR-4 ovarian was above 100 µM; with RPMI-8226 leukemia it was 49.5 µM; in the assay with SF-268 CNS, above 100 µM; in the assay on SK-MEL-5 melanoma, 66.6 µM; with SNB-19 CNS, above 100 µM; in the assay on SNB-75 CNS, above 100 µM. In the assay on UO-31 renal, this molecule registered a TGI above 100 µM.

With `CN(C)C(=O)Oc1ccc(-c2cn3cc(NC(=O)c4ccccc4)ccc3n2)cc1`, the TGI was above 100 µM in the assay with CCRF-CEM leukemia; 32 µM in the assay on COLO 205 colon; above 100 µM in the assay on EKVX NSCLC; above 100 µM with HOP-62 NSCLC; above 100 µM in the assay on M14 melanoma; above 100 µM in the assay on NCI-H23 lung. Further, the TGI in the assay with OVCAR-4 ovarian is above 100 µM; with RPMI-8226 leukemia it was above 100 µM; in the assay with SF-268 CNS, above 100 µM; with SK-MEL-5 melanoma it was 74.1 µM; in the assay on SNB-19 CNS it was above 100 µM; in the assay on SNB-75 CNS it was above 100 µM. The TGI in the assay with UO-31 renal was above 100 µM.

On to `CCOC(=O)/C=C(/C(=O)OCC)n1ccc(=O)n(/C(=C/C(=O)OCC)C(=O)OCC)c1=O`, for which the TGI in the assay on CCRF-CEM leukemia was found to be 3.53 µM; with COLO 205 colon, 3.79 µM; with EKVX NSCLC, 36 µM; in the assay on HOP-62 NSCLC it was 46.9 µM; in the assay on M14 melanoma, 10.6 µM; in the assay with NCI-H23 lung it was 42.7 µM. For the same molecule, the total growth inhibition concentration (TGI) is 30.6 µM with OVCAR-4 ovarian; 7.08 µM with RPMI-8226 leukemia; 43.9 µM with SF-268 CNS; 28.6 µM with SK-MEL-5 melanoma; 38.3 µM in the assay with SNB-19 CNS; 32.6 µM with SNB-75 CNS. Also, the concentration for total growth inhibition (TGI) with UO-31 renal was found to be 28.9 µM.

In the case of `CCOC(=O)c1ccc(-n2c(SCC)nc3sc(C)c(C)c3c2=O)cc1`, the TGI with CCRF-CEM leukemia, with COLO 205 colon, in the assay on EKVX NSCLC, in the assay on HOP-62 NSCLC, with M14 melanoma and in the assay with NCI-H23 lung was above 100 µM in each case. Further, the TGI in the assay with OVCAR-4 ovarian, in the assay on RPMI-8226 leukemia, in the assay with SF-268 CNS, in the assay on SK-MEL-5 melanoma, in the assay with SNB-19 CNS and with SNB-75 CNS was above 100 µM each time. The same molecule returned a TGI with UO-31 renal above 100 µM.

As to `C=CC(C)CCC(C/C=C(\C)CCC=C(C)C)C(=C)CCCC(C)C` (configuration not stated), the TGI in the assay on CCRF-CEM leukemia, with COLO 205 colon, in the assay on EKVX NSCLC, in the assay with HOP-62 NSCLC, with M14 melanoma and with NCI-H23 lung was above 100 µM throughout. The total growth inhibition concentration (TGI) in the assay with OVCAR-4 ovarian, in the assay on RPMI-8226 leukemia, with SF-268 CNS, in the assay with SK-MEL-5 melanoma, in the assay with SNB-19 CNS and in the assay on SNB-75 CNS was above 100 µM in each case. In the assay on UO-31 renal, this molecule registered a TGI above 100 µM.

As to `C=CCOC(=O)[C@@H]1C[C@@H](OC(C)(C)C)CN1C(=O)[C@@H]1[C@H]2OC(C)(C)O[C@H]2CN1C(=O)OCC1c2ccccc2-c2ccccc21`, the TGI in the assay with CCRF-CEM leukemia came out at 36.3 µM; in the assay on COLO 205 colon, 45.7 µM; in the assay with EKVX NSCLC it was 10.6 µM; in the assay with HOP-62 NSCLC it was 4.51 µM; with M14 melanoma, 36 µM; in the assay on NCI-H23 lung it was 33.9 µM. Also, the TGI in the assay with OVCAR-4 ovarian turned out to be 34.1 µM; in the assay on RPMI-8226 leukemia, 32.3 µM; in the assay on SF-268 CNS it was 40.1 µM; with SK-MEL-5 melanoma, 37 µM; with SNB-19 CNS it was 33 µM; in the assay on SNB-75 CNS it was 33.9 µM. In the assay with UO-31 renal, this molecule showed a TGI of 0.614 µM.

Regarding `C=C1C(=O)O[C@H]2[C@H]1CC(=O)/C(C)=C/CC[C@@]1(C)O[C@@H]21`, the TGI in the assay with CCRF-CEM leukemia worked out at 0.394 µM; in the assay on COLO 205 colon, 0.708 µM; with EKVX NSCLC, 24.8 µM; with HOP-62 NSCLC it was 22 µM; in the assay with M14 melanoma, 1.57 µM; in the assay with NCI-H23 lung it was 4.03 µM. Further, the TGI is 12.9 µM in the assay with OVCAR-4 ovarian; 1.92 µM with RPMI-8226 leukemia; 13.4 µM in the assay on SF-268 CNS; 2.63 µM with SK-MEL-5 melanoma; 13.8 µM in the assay with SNB-19 CNS; 31.6 µM in the assay with SNB-75 CNS. The same molecule registered a concentration for total growth inhibition (TGI) in the assay with UO-31 renal of 2.29 µM. The GI50 – broadly, the concentration giving 50% growth inhibition – in the assay with EKVX NSCLC was 6.06 µM; in the assay on RPMI-8226 leukemia, 0.308 µM.
